Test results from patent EP0840781B1, “METHODS AND DEVICES FOR THE REMOVAL OF PSORALENS FROM BLOOD PRODUCTS” (Cerus Corporation, priority 1995, dated 1996).
Where two headings read alike, the source gives them in different places.

Assays:
[1] = test system: Salmonella typhimurium tester strains TA97a, TA98, TA100, TA102, TA1537 and TA1538
Description: The second property that is important in testing a compound for use in methods described herein is mutagenicity. The most widely used mutagen/carcinogen screening assay is the Ames test. This assay is described by D.M. Maron and B.N. Ames in Mutation Research 113:173 ( 1983) and a specific screen is described in detail in Example 17, below. The Ames test utilizes several unique strains of Salmonella typhimurium that are histidine- dependent for growth and that lack the usual DNA repair enzymes. The frequency of normal mutations that render the bacteria independent of histidine (i.e., the frequency of spontaneous revertants) is low. The test allows one to evaluate the impact of a compound on this revenant frequency.
Because some substances are not mutagenic by themselves, but are converted to a mutagen by metabolic action, the compound to be tested is mixed with the bacteria on agar plates along with the liver extract. The liver extract serves to mimic metabolic action in an animal.
The mixtures are allowed to incubate. Growth of bacteria (if any) is checked by counting colonies.
In this example the compounds described herein are tested for their dark mutagenicity using an Ames assay. The procedures used for the Salmonella mutagenicity test as described in detail by Maron and Ames were followed exactly. Maron, D.M. and B.N. Ames, Mutation Research 113: 173 ( 1983). A brief description for each procedure is given here. The tester strains TA97a, TA98, TA 100, TA102, TA1537 and TA1538 were obtained from Dr. Ames. TA97a, TA98, TA1537 and TA1538 are frameshift tester strains. TA100 and TA102 are base-substitution tester strains. Upon receipt each strain was cultured under a variety of conditions to confirm the genotypes specific to the strains.
The first tests done with the strains were to determine the range of spontaneous reversion for each of the strains. With each mutagenicity experiment the spontaneous reversion of the tester strains to histidine independence was measured and expressed as the number of spontaneous revertants per plate. This served as the background controls.
For all experiments, the pre-incubation procedure was used. In this procedure one vial of each tester strain was thawed and 20 µL of this culture was added to 6 mL of Oxoid Nutrient Broth #2. This solution was allowed to shake for 10 hours at 37°C. In the pre-incubation procedure, 0.1 mL of this overnight culture was added to each of the required number of sterile test tubes. To half of the tubes 0.5 mL of a 10% S-9 solution containing Aroclor 1254 induced rat liver extract (Molecular Toxicology Inc., Annapolis, MD), and MgCl2, KCl, glucose-6-phosphate, NADP, and sodium phosphate buffer (Sigma, St. Louis, Missouri) were added. To the other half of the tubes 0.5 mL of 0.2M sodium phospate buffer, pH 7.4, was used in place of the S-9 mixture (the - S9 samples). Finally 0.1 mL of the test solution containing either 0, 0.1, 0.5, 1, 5, 10, 50, 100, 250, or 500 µg/mL of the test compound was added. The 0.7 mL mixture was vonexed and then pre-incubated while shaking for 20 minutes at 37°C. After shaking, 2 mL of molten top agar supplemented with histidine and biotin were added to the 0.7 mL mixture and immediately poured onto a minimal glucose agar plate (volume of base agar was 20 mL). The top agar was allowed 30 minutes to solidify and then the plates were inverted and incubated for 44 hours at 37°C. After incubation the number of revertant colonies on each plate were counted.
Maron and Ames (1983) describe the conflicting views with regard to the statistical treatment of data generated from the test.

HIV-1 = conditions: 1 Minute Irradiation
Description: Pathogen inactivation efficiency of several compounds described herein was evaluated by examining the ability of the compounds to inactivate cell-free virus (HIV). Inactivation of cell-free HIV was performed as follows.
As in the R17 assay, small aliquots of the compounds listed in TABLES 10 and 11, below, at the concentrations listed in the table, were added to stock HIV-1 to a total of 0.5 mL. The stock HIV (10^5 - 10^7 plaque forming units/mL) was in DMEM/15% FBS. […] Controls included HIV-I stock only, HIV-1 plus UVA only, and HIV-I plus the highest concentration of each psoralen tested, with no UVA. Post irradiation. all samples were store frozen at -70° C until assayed for infectivity by a microtiter plaque assay. Aliquots for measurement of residual HIV infectivity in the samples treated with a compound of the present invention were withdrawn and cultured.
Residual HIV infectivity was assayed using an MT-2 infectivity assay. […] The assay medium was 85% DMEM (with a high glucose concentration) containing 100 µg of streptomycin, 100 U of penicillin, 50 µg of gentamicin, and 1 µg of amphotericin B per mL, 15% FBS and 2 µg of Polybrene (Sigma Chemical Co., St. Louis, Mo.) per mL. Test and control samples from the inactivation procedure were diluted in 50% assay medium and 50% normal human pooled plasma. The samples were serially diluted directly in 96-well plates (Coming Glass Works, Coming, N.Y.). The plates were mixed on an oscillatory shaker for 30 seconds and incubated at 37°C in a 5% CO2 atmosphere for 1 to 18 hours. […] After an additional 1 hour of incubation at 37°C in 5% CO2, 0.075 mL of assay medium containing 1.6% SeaPlaque agarose (FMC Bioproducts, Rockland, Maine) and prewarmed to 38.5°C was added to each well. The plates were kept at 37°C for a few minutes until several plates had accumulated and then centrifuged in plate carriers at 600 x g for 20 minutes in a centrifuge precooled to 10°C. In the centrifuge, cell monolayers formed prior to gelling of the agarose layer. The plates were incubated for 5 days at 37°C in 5% CO2 and stained by the addition of 0.05 mL of 50 µg/mL propidium iodide (Sigma Chemical Co.) in phosphate-buffered saline (pH 7.4) to each well. After 24 to 48 hours, the red fluorescence-stained microplaques were visualized by placing the plates on an 8,000 µW/cm^2 304 nm UV light box (Fotodyne, Inc., New Berlin, Wis.). The plaques were counted at a magnification of x20 to x25 through a stereomicroscope.

[2] = 100 µg/plate, Table 19 (B) experiment, background 7
[3] = 100 µg/plate, Table 19 (B) experiment, background 8
[4] = two-fold or greater increase in revertants above background and dose dependent response
[5] = 16 µM, HIV Starting Titer Approximately 5 Logs (Table 10)

## Cc1oc2c(C)c3oc(=O)cc(C)c3cc2c1CN [AMT, 4'-Aminomethyl-4,5',8-trimethylpsoralen, reference compound]
[1]; 0.1 µg/plate
  revertant colonies, TA97a +S9: -23
  revertant colonies, TA97a -S9: 14
  revertant colonies, TA98 +S9: 1
  revertant colonies, TA98 -S9: 3
  revertant colonies, TA100 +S9: -16
  revertant colonies, TA100 -S9: -10
  revertant colonies, TA102 +S9: -20
  revertant colonies, TA102 -S9: 27
  revertant colonies, TA1537 +S9: 2
  revertant colonies, TA1537 -S9: 0
  revertant colonies, TA1538 +S9: 3
  revertant colonies, TA1538 -S9: 3
[1]; 0.5 µg/plate
  revertant colonies, TA97a +S9: 32
  revertant colonies, TA97a -S9: 9
  revertant colonies, TA98 +S9: 3
  revertant colonies, TA98 -S9: 5
  revertant colonies, TA100 +S9: -12
  revertant colonies, TA100 -S9: 13
  revertant colonies, TA102 +S9: 5
  revertant colonies, TA102 -S9: 47
  revertant colonies, TA1537 +S9: 2
  revertant colonies, TA1537 -S9: 3
  revertant colonies, TA1538 +S9: 13
  revertant colonies, TA1538 -S9: 4
[1]; 1 µg/plate
  revertant colonies, TA97a +S9: 32
  revertant colonies, TA97a -S9: 54
  revertant colonies, TA98 +S9: 21
  revertant colonies, TA98 -S9: 5
  revertant colonies, TA100 +S9: -19
  revertant colonies, TA100 -S9: 17
  revertant colonies, TA102 +S9: -17
  revertant colonies, TA102 -S9: 88
  revertant colonies, TA1537 +S9: 3
  revertant colonies, TA1537 -S9: 5
  revertant colonies, TA1538 +S9: 37
  revertant colonies, TA1538 -S9: 4
[1]; 5 µg/plate
  revertant colonies, TA97a +S9: 149
  revertant colonies, TA97a -S9: 73
  revertant colonies, TA98 +S9: 232
  revertant colonies, TA98 -S9: 16
  revertant colonies, TA100 +S9: -6
  revertant colonies, TA100 -S9: 59
  revertant colonies, TA102 +S9: 51
  revertant colonies, TA102 -S9: 266
  revertant colonies, TA1537 +S9: 22
  revertant colonies, TA1537 -S9: 44
  revertant colonies, TA1538 +S9: 177
  revertant colonies, TA1538 -S9: 13
[1]; 10 µg/plate
  revertant colonies, TA98 +S9: 403
  revertant colonies, TA98 -S9: 20
  revertant colonies, TA100 +S9: 17
  revertant colonies, TA100 -S9: 105
  revertant colonies, TA1537 +S9: 30
  revertant colonies, TA1537 -S9: 52
  revertant colonies, TA1538 +S9: 255
  revertant colonies, TA1538 -S9: 14
[1]; 50 µg/plate
  revertant colonies, TA98 +S9: 620
  revertant colonies, TA98 -S9: 69
  revertant colonies, TA100 +S9: 52
  revertant colonies, TA100 -S9: 73
  revertant colonies, TA1537 +S9: 94
  revertant colonies, TA1537 -S9: 2688
[1]; 100 µg/plate
  revertant colonies, TA98 +S9: 745
  revertant colonies, TA98 -S9: 114
  revertant colonies, TA100 +S9: 85
  revertant colonies, TA100 -S9: 75
  revertant colonies, TA1537 +S9: 686
  revertant colonies, TA1537 -S9: 2058
[1]; [2]
  revertant colonies, TA1537 +S9: 500
[1]; [3]
  revertant colonies, TA1537 -S9: 608
[1]; 250 µg/plate
  revertant colonies, TA98 +S9: 933
  revertant colonies, TA98 -S9: 112
  revertant colonies, TA100 +S9: 89
  revertant colonies, TA100 -S9: 24
  revertant colonies, TA1537 +S9: 3738
  revertant colonies, TA1537 -S9: 434
[1]; [4]
  frameshift mutagenicity (Ames, summary): frameshift mutagenicity at between 5 and 10 µg/plate in TA97a and TA98, at 5µg/plate in TA1537 and at 1 µg/plate in TA1538
[1]; two-fold or greater increase in revertants above background and dose dependent response, TA100, TA102
  base-substitution mutagenicity (Ames, summary): no significant base-substitution mutations
HIV-1; [5]
  HIV Log Kill: 1.4

## Cc1oc2c(C)c3oc(=O)cc(C)c3cc2c1COCCN [Compound 2, 4'-(4-amino-2-oxa)butyl-4,5',8-trimethylpsoralen]
[1]; 5 µg/plate
  revertant colonies, TA100 +S9: -18
  revertant colonies, TA100 -S9: 103
  revertant colonies, TA1538 +S9: 2
  revertant colonies, TA1538 -S9: -8
[1]; 10 µg/plate
  revertant colonies, TA98 +S9: 24
  revertant colonies, TA98 -S9: 28
  revertant colonies, TA100 +S9: 1
  revertant colonies, TA100 -S9: 46
  revertant colonies, TA1537 +S9: 5
  revertant colonies, TA1537 -S9: 36
  revertant colonies, TA1538 +S9: 4
  revertant colonies, TA1538 -S9: -13
[1]; 50 µg/plate
  revertant colonies, TA98 +S9: 35
  revertant colonies, TA98 -S9: 52
  revertant colonies, TA100 +S9: 115
  revertant colonies, TA100 -S9: 182
  revertant colonies, TA1537 +S9: 40
  revertant colonies, TA1537 -S9: 282
[1]; 100 µg/plate
  revertant colonies, TA98 +S9: 53
  revertant colonies, TA98 -S9: 39
  revertant colonies, TA100 +S9: 96
  revertant colonies, TA100 -S9: 121
  revertant colonies, TA1537 +S9: 88
  revertant colonies, TA1537 -S9: 258
[1]; 250 µg/plate
  revertant colonies, TA98 +S9: 69
  revertant colonies, TA98 -S9: 29
  revertant colonies, TA1537 +S9: 744
  revertant colonies, TA1537 -S9: 176
[1]; 500 µg/plate
  revertant colonies, TA98 +S9: 63
  revertant colonies, TA98 -S9: 6
  revertant colonies, TA1537 +S9: 395
  revertant colonies, TA1537 -S9: 114
[1]; [4]
  frameshift mutagenicity (Ames, summary): weak frameshift mutagenicity in the presence of S9 in TA98 and TA1537
HIV-1; [5]
  HIV Log Kill: 1.4
HIV-1; 32 µM, HIV Starting Titer Approximately 5 Logs (Table 10)
  HIV Log Kill: 3.8
HIV-1; 64 µM, HIV Starting Titer Approximately 5 Logs (Table 10)
  HIV Log Kill: >4.5

## Cc1cc(=O)oc2c(C)c3oc(COCCN)c(C)c3cc12 [Compound 18, 5'-(4-amino-2-oxa)butyl-4,4',8-trimethylpsoralen]
[1]; 10 µg/plate, Table 19 (A) experiment, background 17
  revertant colonies, TA98 -S9: 21
[1]; 10 µg/plate, Table 19 (A) experiment, background 28
  revertant colonies, TA98 +S9: 8
[1]; 10 µg/plate, Table 19 (B) experiment, background 7
  revertant colonies, TA1537 +S9: 8
[1]; 10 µg/plate, Table 19 (B) experiment, background 8
  revertant colonies, TA1537 -S9: 21
[1]; 50 µg/plate, Table 19 (A) experiment, background 17
  revertant colonies, TA98 -S9: 303
[1]; 50 µg/plate, Table 19 (A) experiment, background 28
  revertant colonies, TA98 +S9: 6
[1]; 50 µg/plate, Table 19 (B) experiment, background 7
  revertant colonies, TA1537 +S9: 6
[1]; 50 µg/plate, Table 19 (B) experiment, background 8
  revertant colonies, TA1537 -S9: 303
[1]; 100 µg/plate, Table 19 (A) experiment, background 17
  revertant colonies, TA98 -S9: 390
[1]; 100 µg/plate, Table 19 (A) experiment, background 28
  revertant colonies, TA98 +S9: 26
[1]; [2]
  revertant colonies, TA1537 +S9: 26
[1]; [3]
  revertant colonies, TA1537 -S9: 390
[1]; 200 µg/plate, Table 19 (A) experiment, background 17
  revertant colonies, TA98 -S9: 225
[1]; 200 µg/plate, Table 19 (A) experiment, background 28
  revertant colonies, TA98 +S9: 42
[1]; 200 µg/plate, Table 19 (B) experiment, background 7
  revertant colonies, TA1537 +S9: 42
[1]; 200 µg/plate, Table 19 (B) experiment, background 8
  revertant colonies, TA1537 -S9: 225
[1]; [4]
  mutagenic response (Ames, summary): only a weak response at high concentrations in the presence of S9 in strains TA 9o and TA 1537
HIV-1; 16 µM, HIV Starting Titer Approximately 5.4 Logs (Table 11)
  HIV Log Kill: 1.0
HIV-1; 32 µM, HIV Starting Titer Approximately 5.4 Logs (Table 11)
  HIV Log Kill: 1.0
HIV-1; 64 µM, HIV Starting Titer Approximately 5.4 Logs (Table 11)
  HIV Log Kill: 3.1
